The record followed here is patent publication US9926302B2, “Heteroaryl substituted heterocyclyl sulfones” (priority 2014, dated 2018).

The target of the first test is T1, Human CaV2.2 channels (Homo sapiens, UniProt Q00975).
T1 construct: expressed in transfected cells
T1 sequence (P54289 947-1103): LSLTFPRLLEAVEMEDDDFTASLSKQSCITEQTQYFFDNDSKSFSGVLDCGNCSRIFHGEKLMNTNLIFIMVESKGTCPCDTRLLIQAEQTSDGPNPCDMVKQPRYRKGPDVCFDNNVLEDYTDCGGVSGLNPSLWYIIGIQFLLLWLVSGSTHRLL
T1 sequence (P54289 25-946): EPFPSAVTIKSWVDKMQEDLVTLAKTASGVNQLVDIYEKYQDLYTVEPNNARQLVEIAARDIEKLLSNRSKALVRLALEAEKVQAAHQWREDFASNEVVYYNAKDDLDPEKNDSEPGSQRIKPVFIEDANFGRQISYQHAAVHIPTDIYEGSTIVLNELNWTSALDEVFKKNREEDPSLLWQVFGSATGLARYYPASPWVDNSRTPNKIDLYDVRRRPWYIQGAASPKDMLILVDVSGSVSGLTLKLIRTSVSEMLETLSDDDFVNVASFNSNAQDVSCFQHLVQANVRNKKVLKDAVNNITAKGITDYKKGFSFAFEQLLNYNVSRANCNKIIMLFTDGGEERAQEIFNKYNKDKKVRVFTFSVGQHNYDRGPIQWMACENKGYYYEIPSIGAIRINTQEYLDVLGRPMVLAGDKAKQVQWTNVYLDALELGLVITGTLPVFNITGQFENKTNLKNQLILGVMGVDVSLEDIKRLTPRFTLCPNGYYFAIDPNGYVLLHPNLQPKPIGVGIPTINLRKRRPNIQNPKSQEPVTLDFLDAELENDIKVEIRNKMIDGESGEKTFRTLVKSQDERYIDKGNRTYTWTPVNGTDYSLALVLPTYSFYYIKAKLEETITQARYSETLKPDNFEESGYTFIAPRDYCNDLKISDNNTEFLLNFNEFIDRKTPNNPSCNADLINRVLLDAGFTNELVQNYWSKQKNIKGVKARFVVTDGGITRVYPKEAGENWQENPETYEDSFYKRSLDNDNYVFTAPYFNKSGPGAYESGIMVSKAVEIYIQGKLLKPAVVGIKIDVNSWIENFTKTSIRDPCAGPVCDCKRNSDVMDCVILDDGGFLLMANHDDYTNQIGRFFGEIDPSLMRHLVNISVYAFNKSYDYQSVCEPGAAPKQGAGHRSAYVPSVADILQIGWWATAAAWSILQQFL
T1 sequence (P54284 whole entry, further chain): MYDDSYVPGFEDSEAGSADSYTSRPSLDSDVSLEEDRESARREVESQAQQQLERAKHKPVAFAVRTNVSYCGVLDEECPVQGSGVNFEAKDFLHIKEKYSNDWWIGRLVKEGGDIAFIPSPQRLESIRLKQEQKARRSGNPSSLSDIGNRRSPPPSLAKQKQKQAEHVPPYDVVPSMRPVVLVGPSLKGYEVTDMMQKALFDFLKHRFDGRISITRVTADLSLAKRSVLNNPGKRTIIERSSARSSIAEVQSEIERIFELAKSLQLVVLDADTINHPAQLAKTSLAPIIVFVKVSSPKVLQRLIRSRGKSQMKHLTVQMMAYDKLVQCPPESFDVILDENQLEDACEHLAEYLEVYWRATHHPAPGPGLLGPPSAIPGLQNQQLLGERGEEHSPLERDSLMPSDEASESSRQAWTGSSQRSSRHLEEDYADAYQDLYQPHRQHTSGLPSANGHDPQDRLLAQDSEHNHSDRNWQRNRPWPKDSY
T1 sequence (Q00975 whole entry): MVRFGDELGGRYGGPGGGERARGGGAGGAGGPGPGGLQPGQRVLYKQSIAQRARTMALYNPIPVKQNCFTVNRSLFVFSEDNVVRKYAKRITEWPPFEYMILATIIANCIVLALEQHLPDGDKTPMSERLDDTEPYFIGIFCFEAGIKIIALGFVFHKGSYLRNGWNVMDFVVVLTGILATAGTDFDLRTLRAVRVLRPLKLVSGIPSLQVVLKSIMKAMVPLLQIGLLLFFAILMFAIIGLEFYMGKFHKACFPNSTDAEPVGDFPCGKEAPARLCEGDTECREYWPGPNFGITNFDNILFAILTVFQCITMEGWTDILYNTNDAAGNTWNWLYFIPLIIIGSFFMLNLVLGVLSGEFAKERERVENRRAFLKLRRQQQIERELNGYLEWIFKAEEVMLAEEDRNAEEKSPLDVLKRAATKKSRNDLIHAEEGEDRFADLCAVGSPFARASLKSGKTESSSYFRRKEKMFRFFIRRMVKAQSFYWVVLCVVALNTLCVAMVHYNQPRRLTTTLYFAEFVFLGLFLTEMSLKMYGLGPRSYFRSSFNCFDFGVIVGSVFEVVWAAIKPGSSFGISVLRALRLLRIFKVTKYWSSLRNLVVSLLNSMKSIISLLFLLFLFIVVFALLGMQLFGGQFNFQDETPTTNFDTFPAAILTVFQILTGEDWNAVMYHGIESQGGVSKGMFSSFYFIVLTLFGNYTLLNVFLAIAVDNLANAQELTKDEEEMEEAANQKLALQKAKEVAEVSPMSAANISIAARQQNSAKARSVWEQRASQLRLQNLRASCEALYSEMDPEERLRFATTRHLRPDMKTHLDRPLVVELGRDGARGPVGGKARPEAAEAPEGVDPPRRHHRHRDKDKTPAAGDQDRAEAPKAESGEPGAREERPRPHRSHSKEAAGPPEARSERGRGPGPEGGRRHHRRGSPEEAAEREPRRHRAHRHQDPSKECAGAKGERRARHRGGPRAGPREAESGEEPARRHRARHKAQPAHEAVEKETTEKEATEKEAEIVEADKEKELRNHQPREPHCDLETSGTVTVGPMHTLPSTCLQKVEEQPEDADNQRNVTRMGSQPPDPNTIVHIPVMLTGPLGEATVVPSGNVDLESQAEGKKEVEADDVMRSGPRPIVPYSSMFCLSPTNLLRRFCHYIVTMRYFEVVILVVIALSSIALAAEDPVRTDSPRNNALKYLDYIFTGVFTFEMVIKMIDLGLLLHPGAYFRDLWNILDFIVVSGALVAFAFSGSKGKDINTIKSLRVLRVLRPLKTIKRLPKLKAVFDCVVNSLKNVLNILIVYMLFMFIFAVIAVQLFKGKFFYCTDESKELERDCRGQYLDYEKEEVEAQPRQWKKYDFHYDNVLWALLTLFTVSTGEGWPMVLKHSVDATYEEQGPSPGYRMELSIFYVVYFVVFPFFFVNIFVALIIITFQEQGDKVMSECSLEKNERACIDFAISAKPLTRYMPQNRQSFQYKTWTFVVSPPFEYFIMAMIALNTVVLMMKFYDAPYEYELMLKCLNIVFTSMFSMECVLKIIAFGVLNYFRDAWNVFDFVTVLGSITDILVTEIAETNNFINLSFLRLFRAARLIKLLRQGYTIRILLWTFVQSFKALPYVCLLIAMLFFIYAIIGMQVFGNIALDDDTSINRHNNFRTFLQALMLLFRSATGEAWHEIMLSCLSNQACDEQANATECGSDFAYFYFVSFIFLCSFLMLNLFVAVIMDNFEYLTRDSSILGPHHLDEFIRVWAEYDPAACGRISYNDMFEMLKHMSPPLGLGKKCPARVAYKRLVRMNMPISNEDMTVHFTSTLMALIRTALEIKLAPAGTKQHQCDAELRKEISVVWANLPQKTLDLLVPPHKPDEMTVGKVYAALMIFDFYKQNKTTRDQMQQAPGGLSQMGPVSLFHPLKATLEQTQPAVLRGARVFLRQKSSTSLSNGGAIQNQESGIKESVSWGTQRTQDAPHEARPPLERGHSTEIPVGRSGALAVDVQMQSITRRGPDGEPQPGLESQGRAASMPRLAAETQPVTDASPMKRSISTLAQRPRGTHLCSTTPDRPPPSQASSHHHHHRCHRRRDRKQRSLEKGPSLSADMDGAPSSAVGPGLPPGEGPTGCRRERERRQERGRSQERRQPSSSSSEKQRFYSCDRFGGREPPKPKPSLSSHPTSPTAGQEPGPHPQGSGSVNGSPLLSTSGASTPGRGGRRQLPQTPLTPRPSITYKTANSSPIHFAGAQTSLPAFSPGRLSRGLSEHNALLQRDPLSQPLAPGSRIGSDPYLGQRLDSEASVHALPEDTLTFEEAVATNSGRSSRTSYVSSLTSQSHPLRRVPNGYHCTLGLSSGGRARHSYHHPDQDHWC
Description: Fluorescence assay for CaV2.2 channels using potassium depolarization to induce channel opening (FLIPR, Fluo 4). It counts as cell-based. Particulars: 3 μM test compound; alternative assay buffer 30 mM KCl (inactivated channel state); HEK293 cells stably expressing human CaV2.2. Put shortly: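 HEK293 cells stably co-expressing CaV2.2 with alpha2-delta and beta subunits plus Kir2.3, loaded with 2 μM Fluo 4 and pre-incubated 15 min at 25° C with compound in 1 mM or 30 mM KCl buffer (pH 7.4; latter promotes inactivated state). Depolarized by KCl addition; peak fluorescence amplitude normalized to baseline gives inhibition.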
As to `CC1(S(=O)(=O)c2cccc(OC(F)(F)F)c2)CCOC(c2ncc(S(C)(=O)=O)cc2Cl)C1` (centres unmarked) [SC-219, 3-Chloro-5-methylsulfonyl-2-[4-methyl-4-[[3-(trifluoromethyloxy)-phenyl]sulfonyl]-tetrahydro-pyran-2-yl]-pyridine], the “Activity Category: %-Inhib (CaV2.2) @3 μM @30 mM KCl” value (“Activity Category: %-Inhib” below) was “A (%-Inhibition >95%)”. In the case of `CC1(S(=O)(=O)c2cccc(OC(F)(F)F)c2)CCOC(c2ncc(C(F)(F)F)cc2S(C)(=O)=O)C1` (centres unmarked) [SC-221, 3-Methylsulfonyl-2-[4-methyl-4-[[3-(trifluoromethyloxy)-phenyl]sulfonyl]-tetrahydro-pyran-2-yl]-5-(trifluoromethyl)-pyridine], the “Activity Category: %-Inhib” value is “B (%-Inhibition >75% up to ≤95%)”. Consider `C[S+]([O-])c1cc(C(F)(F)F)cnc1C1CC(C)(S(=O)(=O)c2cccc(C(F)(F)F)c2)CCO1` (centres unmarked) [SC-229, 3-(Methylsulfinyl)-2-[4-methyl-4-[[3-(trifluoromethyl)phenyl]sulfonyl]-tetrahydro-pyran-2-yl]-5-(trifluoromethyl)-pyridine], for which the “Activity Category: %-Inhib” value is on record as “B (%-Inhibition >75% up to ≤95%)”.

`C[S+]([O-])c1cc(C(F)(F)F)cnc1C1CC(C)(S(=O)(=O)c2cccc(C(F)(F)F)c2)CCO1` (centres unmarked) [SC-230, 3-(Methylsulfinyl)-2-[4-methyl-4-[[3-(trifluoromethyl)phenyl]sulfonyl]-tetrahydro-pyran-2-yl]-5-(trifluoromethyl)-pyridine]: the “Activity Category: %-Inhib” value is “B (%-Inhibition >75% up to ≤95%)”. Regarding `C[S+]([O-])c1cc(C(F)(F)F)cnc1C1CC(C)(S(=O)(=O)c2cccc(C(F)(F)F)c2)CCO1` (centres unmarked) [SC-231, 3-(Methylsulfinyl)-2-[4-methyl-4-[[3-(trifluoromethyl)phenyl]sulfonyl]-tetrahydro-pyran-2-yl]-5-(trifluoromethyl)-pyridine], the “Activity Category: %-Inhib” value is listed as “B (%-Inhibition >75% up to ≤95%)”.

The same test, now with this note: HEK293, 3 μM test compound; alternative assay buffer 30 mM KCl (inactivated channel state); HEK293 cells stably expressing human CaV2.2; read-out: Activity Category: %-Inhib (CaV2.2) @3 μM @30 mM KCl.
In the case of `CC1(S(=O)(=O)c2cccc(OC(F)(F)F)c2)CCOC(c2ncc(S(C)(=O)=O)cc2Cl)C1` (centres unmarked) [SC-218, 3-Chloro-5-methylsulfonyl-2-[4-methyl-4-[[3-(trifluoromethyloxy)-phenyl]sulfonyl]-tetrahydro-pyran-2-yl]-pyridine], the inhibition at 3 µM was in the range of 75 to 95%. Consider `CC1(S(=O)(=O)c2cccc(OC(F)(F)F)c2)CCOC(c2ncc(C(F)(F)F)cc2S(C)(=O)=O)C1` (centres unmarked) [SC-220, 3-Methylsulfonyl-2-[4-methyl-4-[[3-(trifluoromethyloxy)-phenyl]sulfonyl]-tetrahydro-pyran-2-yl]-5-(trifluoromethyl)-pyridine], for which the inhibition at 3 µM was above 95%.

Regarding `CC1(S(=O)(=O)c2cccc(C(F)(F)F)c2)CCOC(c2ncc(S(C)(=O)=O)cc2C(F)(F)F)C1` (centres unmarked) [SC-222, 5-Methylsulfonyl-2-[4-methyl-4-[[3-(trifluoromethyl)phenyl]sulfonyl]-tetrahydro-pyran-2-yl]-3-(trifluoromethyl)-pyridine], the inhibition at 3 µM lay within 75 to 95%. Same read-out and setting: with `COc1cc(S(C)(=O)=O)cnc1C1CC(C)(S(=O)(=O)c2cccc(C(F)(F)F)c2)CCO1` (centres unmarked) [SC-224, 3-Methoxy-5-methylsulfonyl-2-[4-methyl-4-[[3-(trifluoromethyl)phenyl]sulfonyl]-tetrahydro-pyran-2-yl]-pyridine] the figure was 75 to 95%; with `CC1(S(=O)(=O)c2cccc(C(F)(F)F)c2)CCOC(c2ncc(Cl)cc2S(C)(=O)=O)C1` (centres unmarked) [SC-226, 5-Chloro-3-methylsulfonyl-2-[4-methyl-4-[[3-(trifluoromethyl)phenyl]sulfonyl]-tetrahydro-pyran-2-yl]-pyridine], 75 to 95%; with `C[S+]([O-])c1cc(C(F)(F)F)cnc1C1CC(C)(S(=O)(=O)c2cccc(C(F)(F)F)c2)CCO1` (centres unmarked) [SC-228, 3-(Methylsulfinyl)-2-[4-methyl-4-[[3-(trifluoromethyl)phenyl]sulfonyl]-tetrahydro-pyran-2-yl]-5-(trifluoromethyl)-pyridine], above 95%.
